Experimental data reported in patent US20170368082A1, “FORMULATIONS OF BRINCIDOFOVIR” (priority 2016, published 2017).

Assay: Tissue distribution by quantitative whole-body autoradiography (QWBA)
Assay type: in vivo, male Sprague Dawley and Long-Evans rats
Details: PO 15 mg/kg, Group 7
Description: The study utilized 4 groups of male SD rats (albino), and 3 groups of male LE rats (pigmented); a total of 39 rats. All animals were obtained from Hilltop Lab Animals, Inc. (Scottdale, Pa.). […] Rats in Group 5 were administered a single 2-h IV infusion of [^14C]brincidofovir at a target dose of 2 mg/kg. […] Three dosing formulations (one for high dose IV, one for low dose IV, and one for PO dose) were prepared at QPS on the day of dosing. The IV formulation for Groups 1, 2, 3, and 4 contained a vehicle of 10 mM sodium phosphate buffer in 5% dextrose solution at pH 8.0(±0.1).
Each animal, at their respective termination time points, was euthanized for QWBA analysis immediately after blood collection. One rat per time point per Group was euthanized as listed below.
The blood samples were maintained on wet ice (approximately 4° C.) and then centrifuged to obtain plasma within 1 h of the blood collection time. Centrifuge settings were recorded in the study notebook. Duplicate aliquots of plasma (0.050 mL) were analyzed for radioactivity using direct counting by LSC, and residual plasma was stored at approximately −70° C. and was saved for possible future analysis under a separate study protocol. Residual red blood cells were discarded as radioactive waste.
The pinna, distal limbs, hair, and tail were removed from each frozen carcass and each frozen carcass was embedded in an aqueous suspension of approximately 2% (w/v) carboxymethylcellulose and frozen into a block. The blocks were stored at approximately −20° C. prior to sectioning. Each blocked carcass was mounted on the object stage of a cryomicrotome (Leica CM3600 Cryomacrocut, Nussloch, Germany and Vibratome 9800, St. Louis, Mo.) maintained at approximately −20° C. and internal standards (3), which were plasma fortified with [^14C]-glucose at one concentration (approximately 0.05 μCi/mL), were placed into the frozen blocks, prior to sectioning, and were used for section thickness quality control. A number of whole-body sections (approximately 40 μm thick) were taken in the sagittal plane at various levels of interest using a whole-body cryomicrotome set at −20° C. Sagittal sections (20-50 μm thick) of frozen carcasses were exposed to phosphor imaging plates. Regions of images in tissues were converted to concentrations using standards. All of the major tissues, organs, and biological fluids were represented.
Tissue concentration data was determined for the following tissues and/or contents: adipose (brown and white), adrenal gland, bile (in duct), blood (cardiac), bone, bone marrow, brain (cerebrum, cerebellum, medulla), cecum (and contents), large intestine (and contents), epididymis, esophagus, eye (uvea and lens), Harderian gland, heart, kidney (cortex and medulla), liver, lung, lymph node, pancreas, pituitary gland, prostate gland, salivary gland, seminal vesicles, skeletal muscle, skin (pigmented and non-pigmented), small intestine (and contents), stomach (gastric mucosa and contents), spleen, spinal cord, testis, thymus, thyroid, and urinary bladder (and contents).
The imaging plate and sections were placed in light-tight exposure cassettes, in a copper-lined lead safe, for a 4-day exposure at room temperature. […] Quantification was performed by image densitometry using MCD image analysis software (v. 7.0, Interfocus Imaging Ltd) and a standard curve constructed from the integrated response [i.e., Molecular Dynamics Counts per square millimeter (MDC/mm^2)] and the nominal concentrations of the ^14C-calibration standards. The concentrations of radioactivity were expressed as the μg equivalents of [^14C]brincidofovir per gram sample (μg equiv/g). A lower limit of quantification (LLOQ) was applied to the data (See section 6.7.4).
Tissue concentrations that fell below the LLOQ were identified as being below the quantification limit (BQL). Tissue areas that were not visualized on autoradiographic images were identified as no sample (NS) and reported as BQL.

For `CCCCCCCCCCCCCCCCOCCCOP(=O)(O)CO[C@H](CO)Cn1ccc(N)nc1=O` [[14C]brincidofovir], the AUCall (Adipose (brown)) was 24.3703 μg equiv · h/g, the “AUCinf—obs” value (Adipose (brown)) was 24.4043 μg equiv · h/g and the Tmax (Adipose (brown)) was 4 h. The t1/2 (Adipose (brown)) was 233.5 h, the AUCall (Adipose (white)) was 1.1215 μg equiv · h/g and the “AUCinf—obs” value (Adipose (white)) was 2.4387 μg equiv · h/g. It also gave a Tmax (Adipose (white)) of 4 h, a t1/2 (Adipose (white), estimate (footnote a)) of 17.6 h and an AUCall (Adrenal Gland) of 74.5860 μg equiv · h/g. The “AUCinf—obs” value (Adrenal Gland) was 58.7136 μg equiv · h/g, the Tmax (Adrenal Gland) was 8 h and the t1/2 (Adrenal Gland) was 43.2 h. For the same compound, the AUCall (Blood (cardiac)) was 21.9165 μg equiv · h/g, the “AUCinf—obs” value (Blood (cardiac)) was 22.3146 μg equiv · h/g and the Tmax (Blood (cardiac)) was 8 h. The t1/2 (Blood (cardiac), estimate (footnote a)) was 32.8 h, the AUCall (Bone Marrow) was 68.7413 μg equiv · h/g and the “AUCinf—obs” value (Bone Marrow) was 50.2191 μg equiv · h/g. For the same compound, the Tmax (Bone Marrow) was 8 h, the t1/2 (Bone Marrow, estimate (footnote a)) was 96.3 h and the AUCall (Bone) was 1.8470 μg equiv · h/g. For the same compound, the “AUCinf—obs” value (Bone) was 3.7274 μg equiv · h/g, the Tmax (Bone) was 4 h and the t1/2 (Bone, estimate (footnote a)) was 53.9 h. For the same compound, the AUCall (Brain (cerebellum)) was 0.8610 μg equiv · h/g, the Tmax (Brain (cerebellum)) was 8 h and the AUCall (Brain (cerebrum)) was 0.7650 μg equiv · h/g. For the same compound, the Tmax (Brain (cerebrum)) was 8 h, the AUCall (Brain (medulla)) was 0.5770 μg equiv · h/g and the Tmax (Brain (medulla)) was 4 h. For the same compound, the AUCall (Cecum) was 174.4118 μg equiv · h/g, the “AUCinf—obs” value (Cecum) was 142.1970 μg equiv · h/g and the Tmax (Cecum) was 8 h. The t1/2 (Cecum, estimate (footnote a)) was 69.9 h, the AUCall (Epididymis) was 31.1150 μg equiv · h/g and the “AUCinf—obs” value (Epididymis) was 22.3936 μg equiv · h/g. For the same compound, the Tmax (Epididymis) was 4 h, the t1/2 (Epididymis, estimate (footnote a)) was 89.0 h and the AUCall (Esophagus) was 27.9015 μg equiv · h/g. For the same compound, the “AUCinf—obs” value (Esophagus) was 29.1559 μg equiv · h/g, the Tmax (Esophagus) was 4 h and the t1/2 (Esophagus) was 37.2 h. The AUCall (Eye (uveal tract)) was 16.2765 μg equiv · h/g, the “AUCinf—obs” value (Eye (uveal tract)) was 19.8244 μg equiv · h/g and the Tmax (Eye (uveal tract)) was 8 h. The t1/2 (Eye (uveal tract), estimate (footnote a)) was 57.7 h, the AUCall (Harderian Gland) was 63.7645 μg equiv · h/g and the “AUCinf—obs” value (Harderian Gland) was 50.8931 μg equiv · h/g. It also gave a Tmax (Harderian Gland) of 8 h, a t1/2 (Harderian Gland, estimate (footnote a)) of 151.8 h and an AUCall (Heart) of 31.1603 μg equiv · h/g. For the same compound, the “AUCinf—obs” value (Heart) was 23.2365 μg equiv · h/g, the Tmax (Heart) was 8 h and the t1/2 (Heart, estimate (footnote a)) was 110.8 h. For the same compound, the AUCall (Kidney Cortex) was 804.4980 μg equiv · h/g, the “AUCinf—obs” value (Kidney Cortex) was 822.5076 μg equiv · h/g and the Tmax (Kidney Cortex) was 8 h. For the same compound, the t1/2 (Kidney Cortex, estimate (footnote a)) was 244.8 h, the AUCall (Kidney Medulla) was 342.0130 μg equiv · h/g and the “AUCinf—obs” value (Kidney Medulla) was 286.4307 μg equiv · h/g. For the same compound, the Tmax (Kidney Medulla) was 8 h, the t1/2 (Kidney Medulla) was 41.2 h and the AUCall (Large Intestine) was 140.3313 μg equiv · h/g. For the same compound, the “AUCinf—obs” value (Large Intestine) was 123.4302 μg equiv · h/g, the Tmax (Large Intestine) was 8 h and the t1/2 (Large Intestine, estimate (footnote a)) was 37.6 h. For the same compound, the AUCall (Liver) was 1426.6340 μg equiv · h/g, the “AUCinf—obs” value (Liver) was 1435.9700 μg equiv · h/g and the Tmax (Liver) was 4 h. For the same compound, the t1/2 (Liver, estimate (footnote a)) was 190.3 h, the AUCall (Lung) was 53.1145 μg equiv · h/g and the “AUCinf—obs” value (Lung) was 39.9962 μg equiv · h/g. It also gave a Tmax (Lung) of 8 h, a t1/2 (Lung) of 93.0 h and an AUCall (Lymph Node) of 85.04 μg equiv · h/g. The “AUCinf—obs” value (Lymph Node) was 57.7701 μg equiv · h/g, the Tmax (Lymph Node) was 8 h and the t1/2 (Lymph Node, estimate (footnote a)) was 86.4 h. For the same compound, the AUCall (Pancreas) was 10.3720 μg equiv · h/g, the “AUCinf—obs” value (Pancreas) was 12.7271 μg equiv · h/g and the Tmax (Pancreas) was 4 h. The t1/2 (Pancreas) was 62.1 h, the AUCall (Pituitary Gland) was 30.5073 μg equiv · h/g and the “AUCinf—obs” value (Pituitary Gland) was 22.8331 μg equiv · h/g. The Tmax (Pituitary Gland) was 4 h, the t1/2 (Pituitary Gland) was 106.2 h and the AUCall (Prostate Gland) was 7.6578 μg equiv · h/g. The “AUCinf—obs” value (Prostate Gland) was 11.0471 μg equiv · h/g, the Tmax (Prostate Gland) was 4 h and the t1/2 (Prostate Gland) was 70.1 h. For the same compound, the AUCall (Salivary Gland) was 9.1933 μg equiv · h/g, the “AUCinf—obs” value (Salivary Gland) was 12.3800 μg equiv · h/g and the Tmax (Salivary Gland) was 8 h. For the same compound, the t1/2 (Salivary Gland, estimate (footnote a)) was 67.4 h, the AUCall (Seminal Vesicles) was 50.2500 μg equiv · h/g and the “AUCinf—obs” value (Seminal Vesicles) was 34.9600 μg equiv · h/g. For the same compound, the Tmax (Seminal Vesicles) was 1 h, the t1/2 (Seminal Vesicles) was 64.7 h and the AUCall (Skeletal Muscle) was 1.3265 μg equiv · h/g. The Tmax (Skeletal Muscle) was 8 h, the AUCall (Skin (non-pigmented)) was 14.0275 μg equiv · h/g and the “AUCinf—obs” value (Skin (non-pigmented)) was 20.6749 μg equiv · h/g. It also gave a Tmax (Skin (non-pigmented)) of 8 h, a t1/2 (Skin (non-pigmented), estimate (footnote a)) of 93.7 h and an AUCall (Skin (pigmented)) of 17.0405 μg equiv · h/g. The “AUCinf—obs” value (Skin (pigmented)) was 21.3144 μg equiv · h/g, the Tmax (Skin (pigmented)) was 8 h and the t1/2 (Skin (pigmented), estimate (footnote a)) was 63.4 h. The “AUCinf—obs” value (Small Intestine) was 9585.0880 μg equiv · h/g, the Tmax (Small Intestine) was 4 h and the t1/2 (Small Intestine) was 98.1 h. It also gave an AUCall (Small Intestine, 15 mg/kg) of 9575.1810 μg equiv · h/g, an AUCall (Spinal Cord) of 0.1110 μg equiv · h/g and a Tmax (Spinal Cord) of 4 h. The AUCall (Spleen) was 172.2208 μg equiv · h/g, the “AUCinf—obs” value (Spleen) was 125.7566 μg equiv · h/g and the Tmax (Spleen) was 24 h. The t1/2 (Spleen) was 115.4 h, the AUCall (Stomach (mucosa)) was 90.7575 μg equiv · h/g and the “AUCinf—obs” value (Stomach (mucosa)) was 80.6917 μg equiv · h/g. It also gave a Tmax (Stomach (mucosa)) of 2 h, a t1/2 (Stomach (mucosa)) of 66.8 h and an AUCall (Testis) of 30.3920 μg equiv · h/g. For the same compound, the “AUCinf—obs” value (Testis) was 21.7757 μg equiv · h/g, the Tmax (Testis) was 8 h and the t1/2 (Testis, estimate (footnote a)) was 87.2 h. For the same compound, the AUCall (Thymus) was 12.0843 μg equiv · h/g, the “AUCinf—obs” value (Thymus) was 20.6983 μg equiv · h/g and the Tmax (Thymus) was 8 h. For the same compound, the t1/2 (Thymus, estimate (footnote a)) was 96.9 h, the AUCall (Thyroid) was 31.3395 μg equiv · h/g and the “AUCinf—obs” value (Thyroid) was 21.8086 μg equiv · h/g. It also gave a Tmax (Thyroid) of 4 h, a t1/2 (Thyroid) of 59.0 h and an AUCall (Urinary Bladder) of 111.2445 μg equiv · h/g. The “AUCinf—obs” value (Urinary Bladder) was 91.1627 μg equiv · h/g, the Tmax (Urinary Bladder) was 8 h and the t1/2 (Urinary Bladder) was 49.7 h.
